Values joined by “and” are separate entries in the source; they are usually repeats but may differ in a detail not shown here. Identical values can stand only once.
Biological target: T1, HA-L797A CaSR mutant (Rattus norvegicus, UniProt P48442, L797A)
T1 construct: mGluR5 signal peptide (N); expressed in transfected cells; host or cells: HEK293T
T1 sequence (P48442 20-1079 L797A): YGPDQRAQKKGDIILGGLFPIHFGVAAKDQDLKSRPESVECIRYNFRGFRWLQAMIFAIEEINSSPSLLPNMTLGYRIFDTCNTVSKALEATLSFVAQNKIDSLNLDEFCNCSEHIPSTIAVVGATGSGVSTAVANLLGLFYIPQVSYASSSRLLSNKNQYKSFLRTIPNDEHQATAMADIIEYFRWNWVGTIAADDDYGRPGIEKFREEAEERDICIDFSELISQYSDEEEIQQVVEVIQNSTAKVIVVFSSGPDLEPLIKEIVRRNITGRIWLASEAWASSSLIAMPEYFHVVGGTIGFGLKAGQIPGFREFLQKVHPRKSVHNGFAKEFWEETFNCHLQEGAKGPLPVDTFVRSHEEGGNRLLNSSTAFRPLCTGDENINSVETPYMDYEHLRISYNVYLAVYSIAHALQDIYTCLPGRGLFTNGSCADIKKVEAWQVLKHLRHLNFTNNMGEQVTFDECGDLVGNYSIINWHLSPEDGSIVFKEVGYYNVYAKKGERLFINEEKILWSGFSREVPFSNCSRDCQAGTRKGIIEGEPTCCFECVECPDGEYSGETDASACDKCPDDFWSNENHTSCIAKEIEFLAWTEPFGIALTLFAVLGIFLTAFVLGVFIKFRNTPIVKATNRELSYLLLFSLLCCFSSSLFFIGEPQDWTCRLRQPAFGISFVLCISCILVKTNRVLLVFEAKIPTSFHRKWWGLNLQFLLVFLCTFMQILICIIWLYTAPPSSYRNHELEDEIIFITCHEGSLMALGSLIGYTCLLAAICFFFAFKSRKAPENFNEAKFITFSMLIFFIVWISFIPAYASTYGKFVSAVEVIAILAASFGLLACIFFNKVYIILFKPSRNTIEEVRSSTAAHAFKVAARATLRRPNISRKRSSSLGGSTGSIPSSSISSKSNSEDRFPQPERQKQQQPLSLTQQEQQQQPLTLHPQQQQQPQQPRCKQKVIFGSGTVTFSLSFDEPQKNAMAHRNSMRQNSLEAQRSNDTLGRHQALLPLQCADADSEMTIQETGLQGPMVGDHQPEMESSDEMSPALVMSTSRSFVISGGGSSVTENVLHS
Assay: IP-One assay, HEK293T transiently transfected
Assay type: cell-based

EC50 (Ca^2+ alone): 11.7 mM
Hill coefficient ± S.E.M. (Ca^2+ alone): 3.22 ± 0.71
pEC50 ± S.E.M. (Ca^2+ alone): 1.94 ± 0.04
Max ± S.E.M. (normalized to maximum response of WT CaSR): 25% and 25 ± 3.5%
Compound: [Ca+2] [Ca^2+]

Source: publication PMC5394417, “Investigating the molecular mechanism of positive and negative allosteric modulators in the calcium-sensing receptor dimer” (Scientific Reports, 2017)
